Data published in patent US20110086834A1, “ALKYNYL ALCOHOLS AS KINASE INHIBITORS” (AMGEN INC., priority 2008, published 2011).

What follows are compounds tested against T1, NIK (Homo sapiens, UniProt Q99558) (assay: homogenous time resolved fluorescence (HTRF) assay for NIK Ki measurement). Conditions: truncated NIK (catalytic domain only), autophosphorylation; 10 nM enzyme; 20, 100, 200 or 500 μM ATP; room temperature, 2 hours; read-out: Ki activity in the homogenous time resolved fluorescence (HTRF) assay for NIK.
T1 construct: Both assays utilize a truncated form of NIK containing only the catalytic domain; made in house; host or cells: baculovirus expression system (insect cells implied)
Type: biochemical

T1 sequence (Q99558 400-655 limits assumed): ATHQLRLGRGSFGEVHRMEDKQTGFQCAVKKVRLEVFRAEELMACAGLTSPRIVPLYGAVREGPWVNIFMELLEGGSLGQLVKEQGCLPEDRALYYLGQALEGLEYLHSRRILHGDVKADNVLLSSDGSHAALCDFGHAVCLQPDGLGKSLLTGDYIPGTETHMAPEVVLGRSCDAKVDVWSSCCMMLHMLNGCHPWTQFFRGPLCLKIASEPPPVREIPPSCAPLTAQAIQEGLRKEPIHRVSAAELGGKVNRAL

Ki [nM] | SMILES
< 1000 | CC(O)(C#Cc1cccc(Oc2nc(N)ncc2Cl)c1)c1nccs1 (centres unmarked) [Example 315, 4-(3-((2-amino-5-chloro-4-pyrimidinyl)oxy)phenyl)-2-(1,3-thiazol-2-yl)-3-butyn-2-ol]
1000 to 30000 | Cc1ncc2c(n1)-c1c([nH]c3ccc(C#CC(C)(C)O)cc13)CCC2 [Example 242, 2-Methyl-4-(2-methyl-5,6,7,8-tetrahydropyrimido[4′,′:3,4]cyclohepta[1,2-b]indol-1′-yl)-3-butyn-2-ol]
< 1000 | CC(O)(C#Cc1ccc2c(c1)N(c1ccnc(N)n1)CC2)c1cccnc1 (centres unmarked) [Example 290, 4-(1-(2-Amino-4-pyrimidinyl)-2,3-dihydro-1H-indol-6-yl)-2-(3-pyridinyl)-3-butyn-2-ol]
1000 to 30000 | Cc1csc(C(C)(O)C#Cc2ccc3c(c2)N(c2ccnc(N)n2)CC3)n1 (centres unmarked) [Example 287, 4-(1-(2-Amino-4-pyrimidinyl)-2,3-dihydro-1H-indol-6-yl)-2-(4-methyl-1,3-thiazol-2-yl)-3-Butyn-2-ol]
< 1000 | COCCN(C)c1ccc(C#CC(C)(O)c2cc(C)on2)cc1Nc1nc(N)ncc1Cl (centres unmarked) [Example 151, 4-(3-(2-Amino-5-chloropyrimidin-4-ylamino)-4-((2-methoxyethyl)(methyl)amino)phenyl)-2-(5-methylisoxazol-3-yl)but-3-yn-2-ol]
< 1000 | CC(O)(C#Cc1ccc2c(c1)N(c1nc(N)ncc1Cl)CC2(C)C)C(=O)N1CCCC1 (centres unmarked) [Example 50, 4-(1-(2-amino-5-chloro-4-pyrimidinyl)-3,3-dimethyl-2,3-dihydro-1H-indol-6-yl)-2-methyl-1-oxo-1-(1-pyrrolidinyl)-3-butyn-2-ol]
< 1000 | CC(O)(C#Cc1ccc2c(c1)N(c1ccnc(N)n1)CC2)c1ccc(Cl)s1 (centres unmarked) [Example 281, 4-(1-(2-Amino-4-pyrimidinyl)-2,3-dihydro-1H-indol-6-yl)-2-(5-chloro-2-thienyl)-3-butyn-2-ol]
< 1000 | CC(O)(C#Cc1ccc2ncc(-c3ccnc(N)n3)n2c1)c1nccs1 (centres unmarked) [Example 292, 4-(3-(2-Amino-4-pyrimidinyl)imidazo[1,2-a]pyridin-6-yl)-2-(1,3-thiazol-2-yl)-3-butyn-2-ol]
< 1000 | COCCOCCn1cc(-c2nc(N)ncc2F)c2cc(C#CC3(O)CCCC3)ccc21 [Example 133, 1-(2-(3-(2-amino-5-fluoropyrimidin-4-yl)-1-(2-(2-methoxyethoxy)ethyl)-1H-indol-5-yl)ethynyl)cyclopentanol]
1000 to 30000 | Cc1nc(C)c(C(C)(O)C#Cc2ccc3c(c2)N(c2ccnc(N)n2)CC3)s1 (centres unmarked) [Example 283, 4-(1-(2-Amino-4-pyrimidinyl)-2,3-dihydro-1H-indol-6-yl)-2-(2,4-dimethyl-1,3-thiazol-5-yl)-3-butyn-2-ol]
< 1000 | CN1CC[C@](O)(C#Cc2ccc3c(c2)N(c2nc(N)ncc2Cl)CC3(C)C)C1=O [Example 44, (3S)-3-((1-(2-amino-5-chloro-4-pyrimidinyl)-3,3-dimethyl-2,3-dihydro-1H-indol-6-yl)ethynyl)-3-hydroxy-1-methyl-2-pyrrolidinone]
< 1000 | COCCOc1cnc(N)nc1-c1cn(C)c2ccc(C#CC3(O)CCCC3)cc12 [Example 233, 1-((3-(2-Amino-5-(2-methoxyethoxy)-4-pyrimidinyl)-1-methyl-1H-indol-5-yl)ethynyl)cyclopentanol]
< 1000 | N#Cc1ccc(-c2[nH]c3ccc(C#CC4(O)CCCC4)cc3c2-c2ccnc(N)n2)cc1 [Example 94, 4-(3-(2-aminopyrimidin-4-yl)-5-(2-(1-hydroxycyclopentyl)ethynyl)-1H-indol-2-yl)benzonitrile]
< 1000 | C[C@@](O)(C#Cc1ccc2c(c1)N(c1nc(N)ncc1Cl)CC21CN(CCS(C)(=O)=O)C1)c1nccs1 [Example 184, (R)-4-(1′-(2-amino-5-chloropyrimidin-4-yl)-1-(2-(methylsulfonyl)ethyl)spiro[azetidine-3,3′-indoline]-6′-yl)-2-(thiazol-2-yl)but-3-yn-2-ol]
< 1000 | Cc1cc([C@](C)(O)C#Cc2ccc3c(c2)N(c2nc(N)ncc2Cl)CC3)on1 (single isomer, unassigned) [Example 29]
< 1000 | Cc1cc(C(C)(O)C#Cc2ccc(CN3CCOCC3)c(Nc3nc(N)ncc3Cl)c2)no1 (centres unmarked) [Example 158, 4-(3-(2-Amino-5-chloropyrimidin-4-ylamino)-4-(morpholinomethyl)phenyl)-2-(5-methylisoxazol-3-yl)but-3-yn-2-ol]
< 1000 | CC(C)(C)NC(=O)c1ccc(-c2[nH]c3ccc(C#CC4(O)CCCC4)cc3c2-c2ccnc(N)n2)cc1 [Example 93, 4-(3-(2-aminopyrimidin-4-yl)-5-(2-(1-hydroxycyclopentyl)ethynyl)-1H-indol-2-yl)-N-tert-butylbenzamide]
< 1000 | CN1CC[C@]2(C1)CN(c1nc(N)ncc1Cl)c1cc(C#C[C@@](C)(O)c3nccs3)ccc12 (relative stereo) [Example 197, (2R)-4-((3S*)-1-(2-Amino-5-chloro-4-pyrimidinyl)-1′-methyl-1,2-dihydrospiro[indole-3,3′-pyrrolidin]-6-yl)-2-(1,3-thiazol-2-yl)-3-butyn-2-ol]

Ki [nM] | SMILES
< 1000 | CC(O)(C#Cc1ccc2c(c1)N(c1ncncn1)CC21CCOCC1)c1nccs1 (centres unmarked) [Example 37, 2-(1,3-thiazol-2-yl)-4-(1-(1,3,5-triazin-2-yl)-1,2,2′,3′,5′,6′-hexahydrospiro[indole-3,4′-pyran]-6-yl)-3-butyn-2-ol]
< 1000 | Nc1ncc(Cl)c(-c2cnc3ccc(C#CC4(O)CCCC4)cn23)n1 [Example 298, 1-((3-(2-amino-5-chloro-4-pyrimidinyl)imidazo[1,2-a]pyridin-6-yl)ethynyl)-cyclopentanol]
< 1000 | CC(O)(C#Cc1ccc2c(c1)N(c1nc(N)ncc1Cl)CC2)c1ccn[nH]1 (centres unmarked) [Example 78, 4-(1-(2-Amino-5-chloro-4-pyrimidinyl)-2,3-dihydro-1H-indol-6-yl)-2-(1H-pyrazol-5-yl)-3-butyn-2-ol]
1000 to 30000 | CC(O)(C#Cc1ccc2c(c1)N(c1nc(N)ncc1Cl)CC2)c1cc(N2CCCCC2)ccn1 (centres unmarked) [Example 10, 4-(1-(2-amino-5-chloropyrimidin-4-yl)indolin-6-yl)-2-(4-(piperidin-1-yl)pyridin-2-yl)but-3-yn-2-ol]
< 1000 | COCC1(C)CN(c2nc(N)nc3[nH]cnc23)c2cc(C#CC3(O)CCCC3)ccc21 (centres unmarked) [Example 69, 1-((1-(2-amino-9H-purin-6-yl)-3-(methoxymethyl)-3-methyl-2,3-dihydro-1H-indol-6-yl)ethynyl)cyclopentanol]
< 1000 | Cc1cc(C(C)(O)C#Cc2ccc3c(c2)N(c2ccnc(N)n2)CC3)no1 (centres unmarked) [Example 20, 4-(1-(2-aminopyrimidin-4-yl)indolin-6-yl)-2-(5-methylisoxazol-3-yl)but-3-yn-2-ol]
< 1000 | CC(=O)Nc1cc(C#CC2(O)CCCC2)cc2c1CCN2c1nc(N)ncc1Cl [Example 19, N-(1-(2-amino-5-chloropyrimidin-4-yl)-6-(2-(1-hydroxycyclopentyl)ethynyl)indolin-4-yl)acetamide]
1000 to 30000 | Cc1ccc(C#CC(C)(O)c2nccs2)cc1Nc1ccc(C#N)cn1 (centres unmarked) [Example 170, 6-(5-(3-Hydroxy-3-(thiazol-2-yl)but-1-ynyl)-2-methylphenylamino)nicotinonitrile]
< 1000 | C[C@@](O)(C#Cc1ccc2[nH]c(C(=O)N3CCOCC3)c(-c3ccncn3)c2c1)c1nccs1 [Example 91, (5-((R)-3-hydroxy-3-(thiazol-2-yl)but-1-ynyl)-3-(pyrimidin-4-yl)-1H-indol-2-yl)(morpholino)methanone]
< 1000 | Cc1cc(C(C)(O)C#Cc2ccc3c(c2)N(c2nc(N)ncc2Cl)CC3(C)C)no1 (centres unmarked) [Example 3, 4-(1-(2-amino-5-chloropyrimidin-4-yl)-3,3-dimethylindolin-6-yl)-2-(5-methylisoxazol-3-yl)but-3-yn-2-ol]
< 1000 | C[C@@](O)(C#Cc1ccc2c(c1)C(c1nc(N)ncc1Cl)=CC21CCOCC1)c1nccs1 [Example 221, (2R)-4-(3-(2-Amino-5-chloro-4-pyrimidinyl)-2′,3′,5′,6′-tetrahydrospiro[indene-1,4′-pyran]-5-yl)-2-(1,3-thiazol-2-yl)-3-butyn-2-ol]
< 1000 | CC(O)(C#Cc1ccc2c(c1)N(c1nc(N)ncc1Cl)CC21CCOCC1)c1nccs1 (racemic) [Example 208, (rac)-4-(1-(2-Amino-5-chloro-4-pyrimidinyl)-1,2,2′,3′,5′,6′-hexahydrospiro[indole-3,4′-pyran]-6-yl)-2-(1,3-thiazol-2-yl)-3-butyn-2-ol]
< 1000 | CN1CC[C@@]2(C1)CN(c1nc(N)ncc1Cl)c1cc(C#C[C@@](C)(O)c3nccs3)ccc12 (relative stereo) [Example 195, (2R)-4-((3R*)-1-(2-Amino-5-chloro-4-pyrimidinyl)-1′-methyl-1,2-dihydrospiro[indole-3,3′-pyrrolidin]-6-yl)-2-(1,3-thiazol-2-yl)-3-butyn-2-ol]
< 1000 | Nc1ncc2c(n1)-c1c([nH]c3ccc(C#CC4(O)CCCC4)cc13)CCC2 [Example 238, 1-((2-Amino-5,6,7,8-tetrahydropyrimido[4′,′:3,4]cyclohepta[1,2-b]indol-11-yl)ethynyl)cyclopentanol]
< 1000 | Cc1noc(C(C)(O)C#Cc2ccc3c(c2)N(c2nc(N)ncc2Cl)CC3)n1 (centres unmarked) [Example 1, 4-(1-(2-amino-5-chloropyrimidin-4-yl)indolin-6-yl)-2-(3-methyl-1,2,4-oxadiazol-5-yl)but-3-yn-2-ol]
1000 to 30000 | CC(O)(C#Cc1ccc2c(c1)N(c1ccncc1Cl)CC2(C)C)c1nccs1 (centres unmarked) [Example 313, 4-(1-(3-Chloro-4-pyridinyl)-3,3-dimethyl-2,3-dihydro-1H-indol-6-yl)-2-(1,3-thiazol-2-yl)-3-butyn-2-ol]
< 1000 | CN1CC2(C1)CN(c1nc(N)ncc1Cl)c1cc(C#C[C@@](C)(O)c3nccs3)ccc12 (single isomer, unassigned) [Example 182b, (2R*)-4-(1′-(2-Amino-5-chloro-4-pyrimidinyl)-1-methyl-1′,2′-dihydrospiro[azetidine-3,3′-indol]-6′-yl)-2-(1,3-thiazol-2-yl)-3-butyn-2-ol]
